Test results: ChEMBL document CHEMBL4813920, “Metronidazole-conjugates: A comprehensive review of recent developments towards synthesis and medicinal perspective” (Eur J Med Chem, 2021)
pEC50, pIC50: −log10 of the molar value. ≈ marks a conversion by molar mass, not a printed value.

Tests used:
Trichomonas vaginalis [1] = test: Anti-trichomonas activity against Trichomonas vaginalis JT incubated for 48 hrs by hemocytometer based eosin exclusion assay; assay type: functional, organism-based
Trichomonas vaginalis [2] = test: Anti-trichomonas activity against Trichomonas vaginalis CDC 085 incubated for 48 hrs by hemocytometer based eosin exclusion assay; assay type: functional, organism-based; conditions: CDC 085, 48 h
Trichomonas vaginalis [3] = test: Anti-trichomonas activity against Trichomonas vaginalis JT assessed as release of nitric oxide at 0.027 uM preincubated for 3 hrs followed by DAF-FM DA probe addition and measured after 30 mins by confocal microscopy; assay type: functional; conditions: time 3.5 hrs
Trichomonas vaginalis [4] = test: Anti-trichomonas activity against Trichomonas vaginalis CDC 085 assessed as release of nitric oxide at 0.27 uM preincubated for 3 hrs followed by DAF-FM DA probe addition and measured after 30 mins by confocal microscopy; assay type: functional; conditions: time 3.5 hrs
A549 = test: Anticancer activity against human A549 cells assessed as inhibition of cell proliferation at 0.5 uM measured after 48 hrs by CCK8 assay relative to control; assay type: functional
NCI-H446 = test: Anticancer activity against human NCI-H446 cells assessed as inhibition of cell proliferation at 0.5 uM measured after 48 hrs by CCK8 assay relative to control; assay type: functional
[5] = tested on: Human immunodeficiency virus 1; test: Antiviral activity against HIV1 3B infected in human MT4 cells assessed as reduction in virus-induced cell death incubated for 5 days by MTT assay; assay type: functional, organism-based; conditions: Human immunodeficiency virus 1, 3B, MT4, 120 h
[6] = Cytotoxicity against human MT4 cells assessed as reduction in cell viability after 5 days by MTT assay; assay type: cell-based; conditions: time 5 day
[7] = Selectivity index, ratio of CC50 for cytotoxicity against human MT4 cells to EC50 for antiviral activity against HIV1 3B infected in human MT4 cells; assay type: toxicity, cell-based; conditions: read-out: Ratio CC50/EC50
Helicobacter pylori [8] = test: Antimicrobial activity against Helicobacter pylori ATCC 43504 incubated for 3 days by agar dilution method; assay type: functional; conditions: NCTC 11637 = CCUG 17874 = ATCC 43504, 72 h, time 3 day
Helicobacter pylori [9] = test: Antimicrobial activity against Helicobacter pylori SS1 incubated for 3 days by agar dilution method; assay type: functional; conditions: SS1, 72 h, time 3 day
Helicobacter pylori [10] = test: Antimicrobial activity against Helicobacter pylori SS1 clinical isolate2 for 3 days by agar dilution method; assay type: functional; conditions: SS1 clinical isolate2, 72 h, time 3 day
Helicobacter pylori [11] = test: Antimicrobial activity against Helicobacter pylori clinical isolate3 for 3 days by agar dilution method; assay type: functional; conditions: clinical isolate3, 72 h, time 3 day
Helicobacter pylori [12] = test: Antimicrobial activity against Helicobacter pylori clinical isolate8 for 3 days by agar dilution method; assay type: functional; conditions: clinical isolate8, 72 h, time 3 day
Helicobacter pylori [13] = test: Potency index, ratio of MIC for metronidazole to test compound for Helicobacter pylori ATCC 43504 incubated for 3 days by agar dilution method; assay type: functional, NCTC 11637 = CCUG 17874 = ATCC 43504; conditions: time 3 day
Helicobacter pylori [14] = test: Potency index, ratio of MIC for metronidazole to test compound for Helicobacter pylori SS1 incubated for 3 days by agar dilution method; assay type: functional; conditions: time 3 day
Helicobacter pylori [15] = test: Potency index, ratio of MIC for metronidazole to test compound for Helicobacter pylori clinical isolate2 for 3 days by agar dilution method; assay type: functional; conditions: time 3 day
Helicobacter pylori [16] = test: Potency index, ratio of MIC for metronidazole to test compound for Helicobacter pylori clinical isolate3 for 3 days by agar dilution method; assay type: functional; conditions: time 3 day
Helicobacter pylori [17] = test: Potency index, ratio of MIC for metronidazole to test compound for Helicobacter pylori clinical isolate8 for 3 days by agar dilution method; assay type: functional; conditions: time 3 day
Proteus vulgaris [18] = test: Antibacterial activity against Proteus vulgaris by two-fold serial dilution technique; assay type: functional
Escherichia coli = test: Antibacterial activity against Escherichia coli DH52 by two-fold serial dilution technique; assay type: functional
Staphylococcus aureus = test: Antibacterial activity against Methicillin-resistant Staphylococcus aureus N315 by two-fold serial dilution technique; assay type: functional
Shigella dysenteriae = test: Antibacterial activity against Shigella dysenteriae by two-fold serial dilution technique; assay type: functional
Cyberlindnera jadinii = test: Antifungal activity against Candida utilis by two-fold serial dilution technique; assay type: functional; conditions: Williopsis jadinii
Saccharomyces cerevisiae = test: Antifungal activity against Beer yeast by two-fold serial dilution technique; assay type: functional
Proteus vulgaris [19] = test: Potency index, ratio of Metronidazole MIC to test compound MIC for antibacterial activity against Proteus vulgaris by two-fold serial dilution technique; assay type: functional
Proteus vulgaris [20] = test: Potency index, ratio of Chloromycin MIC to test compound MIC for antibacterial activity against Proteus vulgaris by two-fold serial dilution technique; assay type: functional
Proteus vulgaris [21] = test: Potency index, ratio of Norfloxacin MIC to test compound MIC for antibacterial activity against Proteus vulgaris by two-fold serial dilution technique; assay type: functional
B16-F10 = test: Antiproliferative activity against mouse B16-F10 cells incubated for 24 to 48 hrs by MTT assay; assay type: functional, cell-based

## Cc1ncc([N+](=O)[O-])n1CCCl
Trichomonas vaginalis [1]
  pIC50: 8.22
Trichomonas vaginalis [2]
  pIC50: 6.62
Trichomonas vaginalis [3]
  Activity: 9000 a.u.
Trichomonas vaginalis [4]
  Activity: 9000 a.u.

## COc1cc2c(Nc3ccc(Br)cc3F)ncnc2cc1OCC1CCN(C(=O)Cn2cncc2[N+](=O)[O-])CC1
A549
  inhibition at 0.5 µM: 62%
NCI-H446
  inhibition at 0.5 µM: 59.9%

## Cc1ncc([N+](=O)[O-])n1CCSc1ccccc1
[5]
  pEC50: 5.65
[6]
  CC50 at 120 h: 24800 nM
[7]
  selectivity ratio: 11

## Cc1ncc([N+](=O)[O-])n1CCOc1cc(O)c2c(=O)c(-c3ccc(O)cc3)coc2c1
Helicobacter pylori [8]
  MIC: 0.39 µg/mL (≈ 0.921 µM)
Helicobacter pylori [9]
  MIC: 0.39 µg/mL (≈ 0.921 µM)
Helicobacter pylori [10]
  MIC: 0.39 µg/mL (≈ 0.921 µM)
Helicobacter pylori [11]
  MIC: 0.39 µg/mL (≈ 0.921 µM)
Helicobacter pylori [12]
  MIC: 0.39 µg/mL (≈ 0.921 µM)
Helicobacter pylori [13]
  Ratio: >50
Helicobacter pylori [14]
  Ratio: >50
Helicobacter pylori [15]
  Ratio: >50
Helicobacter pylori [16]
  Ratio: >50
Helicobacter pylori [17]
  Ratio: >50

## CCNc1ccc2c3c(cccc13)C(=O)N(CC(O)Cn1c([N+](=O)[O-])cnc1C)C2=O (centres undefined)
Proteus vulgaris [18]
  MIC: 2 µM (≈ 0.847 µg/mL)
Escherichia coli
  MIC: 40 µM (≈ 16.9 µg/mL)
Staphylococcus aureus
  MIC: 40 µM (≈ 16.9 µg/mL)
Shigella dysenteriae
  MIC: 10 µM (≈ 4.23 µg/mL)
Cyberlindnera jadinii
  MIC: 20 µM (≈ 8.47 µg/mL)
Saccharomyces cerevisiae
  MIC: 10 µM (≈ 4.23 µg/mL)
Proteus vulgaris [19]
  Ratio: 95
Proteus vulgaris [20]
  Ratio: 50
Proteus vulgaris [21]
  Ratio: 10

## Cc1cc(C)nc(NS(=O)(=O)c2ccc(/N=C\c3ccc(OCCn4c([N+](=O)[O-])cnc4C)cc3)cc2)n1
B16-F10
  pIC50: 6.72
